These results are taken from patent US8962622B2, “Benzotriazole kinase modulators” (Roche Palo Alto LLC, priority 2006, dated 2015).

In general, melting point refers to the temperature of the solid-liquid transition. For the molecule `OC[C@H]1CCCC[C@H]1Nc1nccc(-n2nnc3ccccc32)n1` [Example 9, (1S,2R)-[2-(4-benzotriazol-1-yl-pyrimidin-2-ylamino)-cyclohexyl]-methanol], the melting point fell in the range of 206.1 to 207.8 °C.
For `CN(c1nccc(-n2nnc3ccccc32)n1)[C@H]1CC[C@H](N(C)S(C)(=O)=O)CC1` [Example 14, N-{trans-4-[(4-benzotriazol-1-yl-pyrimidin-2-yl)-methyl-amino]-cyclohexyl}-N-methyl-methanesulfonamide] the value was 203.5 to 204 °C; for `O=C1CCC(=O)N1[C@H]1CC[C@H](Nc2nccc(-n3nnc4ccccc43)n2)CC1` [Example 15, 1-[trans-4-(4-benzotriazol-1-yl-pyrimidin-2-ylamino)-cyclohexyl]-pyrrolidine-2,5-dione], 205 to 210 °C.
Take `O=C1CCC(Nc2nccc(-n3nnc4ccccc43)n2)CC1` [Example 16, 4-(4-benzotriazol-1-yl-pyrimidin-2-ylamino)-cyclohexanone]: the melting point lay within 204.9 to 206.5 °C.
The molecule `CC1(O)CCC(Nc2nccc(-n3nnc4ccccc43)n2)CC1` (stereo not drawn) [Example 17, 4-(4-benzotriazol-1-yl-pyrimidin-2-ylamino)-1-methyl-cyclohexanol] returned a melting point of 202.1 to 205.6 °C.
On to `COCC(=O)N[C@H]1CC[C@H](Nc2nccc(-n3nnc4ccccc43)n2)CC1` [Example 24, trans-N-[4-(4-Benzotriazol-1-yl-pyrimidin-2-ylamino)-cyclohexyl]-2-methoxy-acetamide], for which the melting point fell in the range of 233.5 to 235.4 °C.
